Toxic doses and inconclusive results are not listed. Rule as the data show it: active = T/C of 150% or more; inactive = T/C below 125%.
Tested on: L1210 leukemia ip in BDF1 mice, survival T/C
Experiment: NCI In Vivo Anticancer Drug Screen. Data for tumor model L1210 Leukemia (intraperitoneal) in B6D2F1 (BDF1) mice
Conditions: endpoint: mean survival time, higher = longer survival
Outline: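 Survival endpoint. Drug-treated group vs vehicle group, expressed as T divided by C. Tumor passaged by transplantation.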

[1] = dose: 100.0 mg/kg/injection, schedule: Q04DX003 (ip), vehicle: saline with Tween-80
[2] = dose: 200.0 mg/kg/injection, schedule: Q01DX009 (ip), vehicle: saline with Tween-80
[3] = dose: 200.0 mg/kg/injection, schedule: Q04DX003 (ip), vehicle: saline with Tween-80
[4] = dose: 400.0 mg/kg/injection, schedule: Q04DX003 (ip), vehicle: saline with Tween-80
[5] = dose: 100.0 mg/kg/injection, schedule: Q01DX001 (ip), vehicle: saline
[6] = dose: 100.0 mg/kg/injection, schedule: Q01DX009 (ip), vehicle: Klucel (hydroxypropylcellulose) (HPC)
[7] = dose: 200.0 mg/kg/injection, schedule: Q01DX009 (ip), vehicle: Klucel (hydroxypropylcellulose) (HPC)
[8] = dose: 400.0 mg/kg/injection, schedule: Q01DX009 (ip), vehicle: Klucel (hydroxypropylcellulose) (HPC)
[9] = dose: 100.0 mg/kg/injection, schedule: Q04DX002 (ip), vehicle: saline with Tween-80
[10] = dose: 200.0 mg/kg/injection, schedule: Q04DX002 (ip), vehicle: saline with Tween-80
[11] = dose: 400.0 mg/kg/injection, schedule: Q04DX002 (ip), vehicle: saline with Tween-80
[12] = dose: 100.0 mg/kg/injection, schedule: Q04DX003 (ip), vehicle: Klucel (hydroxypropylcellulose) (HPC)
[13] = dose: 200.0 mg/kg/injection, schedule: Q04DX003 (ip), vehicle: Klucel (hydroxypropylcellulose) (HPC)
[14] = dose: 400.0 mg/kg/injection, schedule: Q04DX003 (ip), vehicle: Klucel (hydroxypropylcellulose) (HPC)
[15] = dose: 50.0 mg/kg/injection, schedule: Q04DX003 (ip), vehicle: saline

Measured: T/C

O=Cc1[nH]c(=S)[nH]c(=O)c1Cc1cccc(Cl)c1
inactive: dose: 100.0 mg/kg/injection, schedule: Q01DX009 (ip), vehicle: saline with Tween-80 100 % of control | [1] 94 % of control | [2] 100 % of control | [3] 94 % of control | dose: 400.0 mg/kg/injection, schedule: Q01DX009 (ip), vehicle: saline with Tween-80 100 % of control | [4] 90 % of control

COc1cc2c(c(OC)c1OC)-c1ccc(SCC3CCC4CC3C4(C)C)c(=O)cc1C(NC(C)=O)CC2 (stereo not drawn)
inactive: dose: 12.5 mg/kg/injection, schedule: Q04DX002 (ip), vehicle: saline 100 % of control | dose: 25.0 mg/kg/injection, schedule: Q04DX002 (ip), vehicle: saline 95 % of control | dose: 50.0 mg/kg/injection, schedule: Q04DX002 (ip), vehicle: saline 106 % of control

Cc1ccc(Nc2cc(C)nc(N)n2)cc1
inactive: dose: 25.0 mg/kg/injection, schedule: Q01DX Z (ip), vehicle: methylcellulose (MC) 90 % of control

COc1ccc(N(C)CC(O)CN)cc1 (stereo not drawn)
inactive: [5] 108 % of control | dose: 200.0 mg/kg/injection, schedule: Q01DX001 (ip), vehicle: saline 104 % of control

COc1ccc(/C=N/Nc2c([N+](=O)[O-])cc(C)cc2[N+](=O)[O-])cc1
inactive: [6] 102 % of control | [7] 100 % of control | [8] 100 % of control

COc1cc(/C=N\Nc2ccccc2)ccc1OC(=O)c1ccccc1
inactive: [9] 91 % of control | [10] 91 % of control | [11] 98 % of control

COc1ccc(C(O)(c2ccccc2)C(OC(=O)CCl)c2ccccc2)cc1 (stereo not drawn)
inactive: [2] 90 % of control

CC(C)OC(=S)SCC(=O)O
inactive: [1] 97 % of control | [3] 93 % of control | [4] 93 % of control

CC(C)(C)c1ccc(CBr)cc1
inactive: dose: 25.0 mg/kg/injection, schedule: Q04DX002 (ip), vehicle: Klucel (hydroxypropylcellulose) (HPC) 102 % of control | dose: 50.0 mg/kg/injection, schedule: Q04DX002 (ip), vehicle: Klucel (hydroxypropylcellulose) (HPC) 94 % of control | dose: 100.0 mg/kg/injection, schedule: Q04DX002 (ip), vehicle: Klucel (hydroxypropylcellulose) (HPC) 94 % of control

CCC1(C)N=C(C)C(C)S1 (stereo not drawn)
inactive: [1] 111 % of control | [3] 100 % of control | [4] 100 % of control

N#C/C(=C\C1CC(Br)CC(Br)C1O)C1CCC([N+](=O)[O-])CC1 (stereo not drawn)
inactive: [9] 90 % of control | [10] 90 % of control | [11] 93 % of control

COc1ccc(C=O)cc1Br
inactive: [12] 102 % of control | [13] 97 % of control | [14] 95 % of control

CC#CCOCC1CN(C)C(=O)O1 (stereo not drawn)
inactive: dose: 25.0 mg/kg/injection, schedule: Q01DX009 (ip), vehicle: saline 95 % of control | dose: 50.0 mg/kg/injection, schedule: Q01DX009 (ip), vehicle: saline 98 % of control | [15] 106 % of control | dose: 100.0 mg/kg/injection, schedule: Q01DX009 (ip), vehicle: saline 92 % of control | dose: 100.0 mg/kg/injection, schedule: Q04DX003 (ip), vehicle: saline 101 % of control | dose: 200.0 mg/kg/injection, schedule: Q01DX009 (ip), vehicle: saline 90 % of control | dose: 200.0 mg/kg/injection, schedule: Q04DX003 (ip), vehicle: saline 104 % of control | dose: 400.0 mg/kg/injection, schedule: Q01DX009 (ip), vehicle: saline 95 % of control | dose: 400.0 mg/kg/injection, schedule: Q04DX003 (ip), vehicle: saline 101 % of control

S=P(NCCCCCCCCNP(=S)(N1CC1)N1CC1)(N1CC1)N1CC1
inactive: dose: 100.0 mg/kg/injection, schedule: Q01DX001 (ip), vehicle: carboxymethylcellulose (CMC) 102 % of control | dose: 200.0 mg/kg/injection, schedule: Q01DX001 (ip), vehicle: carboxymethylcellulose (CMC) 119 % of control | dose: 400.0 mg/kg/injection, schedule: Q01DX001 (ip), vehicle: carboxymethylcellulose (CMC) 107 % of control

COc1ccc(CC(=O)OOC(C)(C)C)cc1
inactive: [1] 100 % of control | [3] 92 % of control

O=Nc1c(S(=O)(=O)O)cc2cc(S(=O)(=O)O)cc(O)c2c1O.[Cu+2]
inactive: dose: 0.16 mg/kg/injection, schedule: Q01DX009 (ip), vehicle: saline 95 % of control | dose: 0.31 mg/kg/injection, schedule: Q01DX009 (ip), vehicle: saline 103 % of control | dose: 0.63 mg/kg/injection, schedule: Q01DX009 (ip), vehicle: saline 92 % of control | dose: 1.25 mg/kg/injection, schedule: Q04DX003 (ip), vehicle: saline 102 % of control | dose: 2.5 mg/kg/injection, schedule: Q04DX003 (ip), vehicle: saline 102 % of control | dose: 5.0 mg/kg/injection, schedule: Q04DX003 (ip), vehicle: saline 94 % of control

CCOC(=O)Nc1ccccc1OCC
inactive: [6] 96 % of control | [7] 95 % of control | [8] 96 % of control

Cc1c(C#N)c2nc(C(=O)c3ccc(Br)cc3)cc(-c3ccc(Br)cc3)n2c1C
inactive: dose: 50.0 mg/kg/injection, schedule: Q04DX003 (ip), vehicle: saline with Tween-80 98 % of control | [1] 111 % of control | [3] 103 % of control | [4] 106 % of control

Cc1cc(I)c(C)s1
inactive: [1] 96 % of control | [3] 96 % of control | [4] 98 % of control

CC(=O)/C=C(\C)OB(F)F
inactive: dose: 50.0 mg/kg/injection, schedule: Q01DX001 (ip), vehicle: saline 98 % of control | [5] 95 % of control

Cc1ccc[n+](Cc2ccccc2)c1
inactive: dose: 12.5 mg/kg/injection, schedule: Q04DX003 (ip), vehicle: saline 98 % of control | dose: 25.0 mg/kg/injection, schedule: Q04DX003 (ip), vehicle: saline 101 % of control | [15] 97 % of control

C[N+](C)(CCO)CC(O)c1ccc(C(O)C[N+](C)(C)CCO)cc1 (stereo not drawn)
inactive: dose: 0.05 mg/kg/injection, schedule: Q04DX003 (ip), vehicle: saline 102 % of control | dose: 0.1 mg/kg/injection, schedule: Q04DX003 (ip), vehicle: saline 104 % of control | dose: 0.2 mg/kg/injection, schedule: Q04DX003 (ip), vehicle: saline 93 % of control

Brc1ccc(C=C2c3ccccc3-c3ccccc32)cc1
inactive: [6] 100 % of control | [12] 96 % of control | [7] 97 % of control | [13] 97 % of control | [8] 100 % of control | [14] 94 % of control
